Source: the OligoGym collection
“And” between values parts separate entries of the source, which are not always exact repeats. Equal values may be shown once. After the bases stand the sugars from the 5' end (letter, count) and the backbone: PS all phosphorothioate, else s phosphorothioate and o phosphodiester by linkage. Methylation of C is not given here. e = 2'-O-(2-methoxyethyl) (MOE); k = constrained ethyl (cEt); d = 2'-deoxy (DNA)

Molecular target: APOL1
Settings: ASO

Sequence	target mRNA inhibition (A431, 0.0156 µM) [%]	target mRNA inhibition (A431, 0.0625 µM)	target mRNA inhibition (A431, 0.25 µM)	target mRNA inhibition (A431, 1 µM)	target mRNA inhibition (A431, 2 µM)	target mRNA inhibition (A431, 0.04 µM)
AGCTTTAAACTCAGGT (sugars kkdddddkekeddddd, PS)	31	53%	79%	92%	94%	
AAGCTTTAAACTCAGG (sugars kkkddddkekekdddd, PS)					16%	
CAACACATCATTGGGT (sugars kkddddekekeddddd, PS)					80%	
GCTGGGTCTGTAGTGG (sugars k4 d9 k3, PS)		49%	70%	82%		
GAAATGAACGCAATGC (sugars k4 d9 k3, PS)		42%	71%	87%		
TTCAGAATTTCCACTA (sugars kkddddkekekkdddd, PS)					58%	
TGGTTCAAAAGCAGCA (sugars kkddddkekekddddd, PS)					68%	
ATCAGATGGGTACTTC (sugars kkdddddkekeddddd, PS)					83%	
CGTCAATATATTCTTT (sugars kkddddekekeddddd, PS)					90%	
TTATTGCAGGCTCCAA (sugars k4 d9 k3, PS)		39%	47%	76%		
AAGATTGGCTCTGGCT (sugars k2 d4 e3 k2 d5, PS)					63%	
GCTAATTTTCTGACTG (sugars kdddddkekekddddd, PS)					98%	
GAAGATTGGCTCTGGC (sugars k3 d4 k3 e1 d5, PS)					70%	
ATTCTATTAGAGGGCT (sugars kkddddkekekddddd, PS)					46%	
TATATTTGATCCTCAA (sugars kddddkekekeddddd, PS)					75%	
GTATTTCTTGATGTGG (sugars k3 d5 k3 d5, PS)			95% and 98% and 99%	97% and 99% and 100%	99% and 100%	
AATTTTATGGAACCTC (sugars k3 d10 k3, PS)		37%	74%	90%		
CATTCAGAATTTCCAC (sugars k3 d4 k3 e1 d5, PS)	5	25%	64%	82%	92%	
TTTGTAAGTGCAACCA (sugars kddddkekekeddddd, PS)					95%	
ACGCAATGCTGACTTG (sugars kkddddkdkdkddddd, PS)					85%	
ATCAGATGGGTACTTC (sugars kdddddkekekddddd, PS)					73%	
CGCAATGCTGACTTGG (sugars kkddddkekekkdddd, PS)					60%	
GGCAGTTTTGTAAGTG (sugars k2 d4 e3 k2 d5, PS)					80%	
AGTTTTGTAAGTGCAA (sugars k3 d4 k3 e1 d5, PS)	15	60%	87%	94%	96%	
TCCGTCAATATATTCT (sugars kkkddddkekekdddd, PS)	30	57%	84%	94%	95%	50%
AACACATCATTGGGTT (sugars k2 d4 e3 k2 d5, PS)					43%	

Sequence	target mRNA inhibition (A431, 0.0156 µM) [%]	target mRNA inhibition (A431, 0.0625 µM)	target mRNA inhibition (A431, 0.25 µM)	target mRNA inhibition (A431, 1 µM)	target mRNA inhibition (A431, 2 µM)	target mRNA inhibition (A431, 0.04 µM)
GCAATGCTGACTTGGC (sugars kkddddkekekkdddd, PS)	5	12%	44%	80%	91%	
TCATAGATACTCCTCA (sugars k3 d10 k3, PS)	8	17%	51%	80%		
TCAGCTATGGAAATGC (sugars k4 d9 k3, PS)		45%	78%	92%		
AGCTTTAAACTCAGGT (sugars kkddddekekeddddd, PS)					92%	
GTTCTAACTCTTGGGC (sugars kdddddkekekddddd, PS)					28%	
GTAAGTATTGCCAGCT (sugars kkkddddkekekdddd, PS)					73%	
CACTTTATACCAGTGT (sugars kkddddkekekddddd, PS)					14%	
GAACGCAATGCTGACT (sugars k3 d10 k3, PS)		14%	50%	76%		
CTTTATACCAGTGTCT (sugars kkddddkdkdkddddd, PS)					92%	
CTCATTATCAGTCAGC (sugars k4 d9 k3, PS)		57%	65%	64%		
GAAGATTGGCTCTGGC (sugars kkddddkekekkdddd, PS)					10%	
CATTCAGAATTTCCAC (sugars kekddddeekkddddd, PS)					89%	
AGTATTGCCAGCTAAG (sugars kkddddkdkdkddddd, PS)					69%	
CTGTTCTAACTCTTGG (sugars kkddddekekeddddd, PS)	43	64%	83%	92%	97%	
AAGTATTGCCAGCTAA (sugars kekddddeekkddddd, PS)					88%	
TTCTATTAGAGGGCTA (sugars kdddddkekekddddd, PS)					45%	
AGTTTTGTAAGTGCAA (sugars kkddddkdkdkddddd, PS)	16	34%	72%	85%	91%	
CACCCTCTTTATCCCC (sugars k4 d9 k3, PS)		47% and 62%	76% and 82%	90%		
ATTCTCATGGTACAGG (sugars k3 d4 k3 e1 d5, PS)	17	48%	72%	88%	93%	
AGGGAAATGAACGCAA (sugars k4 d9 k3, PS)		38%	65%	85%		
TTTATACCAGTGTCTT (sugars k2 d4 e3 k2 d5, PS)					88%	
GAGTATTGTTTTTGTG (sugars kkddddekekeddddd, PS)	40	78%	92%	97%	98%	47% and 50%
CTGAAGATTGGCTCTG (sugars kkkddddkekekdddd, PS)					36%	
TCCGTCAATATATTCT (sugars k3 d10 k3, PS)		83%	96%	98%		
GAGTCATTAGTGCTAT (sugars k4 d9 k3, PS)		53%	77%	85%		
AGTATTGTTTTTGTGG (sugars kkddddekekeddddd, PS)					89%	

Sequence	target mRNA inhibition (A431, 0.0156 µM) [%]	target mRNA inhibition (A431, 0.0625 µM)	target mRNA inhibition (A431, 0.25 µM)	target mRNA inhibition (A431, 1 µM)	target mRNA inhibition (A431, 2 µM)	target mRNA inhibition (A431, 0.04 µM)
GTTATATTTGATCCTC (sugars kkddddkekekddddd, PS)					80%	
AACACATCATTGGGTT (sugars k3 d4 k3 e1 d5, PS)					58%	
AAGCTTTAAACTCAGG (sugars kkddddekekeddddd, PS)	20	58%	84%	92%	95%	
TTCAGCTAAGACCAGT (sugars k4 d9 k3, PS)		35%	71%	88%		
GTCTAAAGTAAACTGC (sugars k4 d9 k3, PS)			65% and 83%	81% and 89%		
TAAGTGCTTTGATTCG (sugars k4 d9 k3, PS)		64% and 82%	87% and 92%	94% and 96%		
TGGTTCAAAAGCAGCA (sugars kkddddekekeddddd, PS)					82%	
GGTTCAAAAGCAGCAT (sugars k3 d4 k3 e1 d5, PS)					74%	
ATTCTCATGGTACAGG (sugars kkkddddkekekdddd, PS)					70%	
CTATTAGAGGGCTAGT (sugars kddddkekekeddddd, PS)					34%	
AAGATTGGCTCTGGCT (sugars kkddddkekekddddd, PS)					37%	
GCTTTAAACTCAGGTG (sugars kkddddekekeddddd, PS)	14	41%	62%	86%	92%	
TACTTCTGTTAGATAC (sugars k4 d9 k3, PS)		47%	76%	92%		
TGGGTCAAAAGCGATG (sugars k4 d9 k3, PS)		25%	54%	77%		
TGTATTTCTTGATGTG (sugars k2 d4 e3 k2 d5, PS)					87%	
ACGCAATGCTGACTTG (sugars kkkddddkekeddddd, PS)					87%	
TTATATTTGATCCTCA (sugars kddddkekekeddddd, PS)					39%	
ACACATCATTGGGTTA (sugars kkddddkdkdkddddd, PS)					57%	
CACATCATTGGGTTAT (sugars k2 d4 e4 k2 d4, PS)					54%	
TAAGTATTGCCAGCTA (sugars k2 d4 e3 k2 d5, PS)					79%	
TCAGATGGGTACTTCT (sugars k2 d4 e4 k2 d4, PS)					78%	
TTTGTAAGTGCAACCA (sugars kekddddeekkddddd, PS)	21	46%	84%	96%	99%	
CTTTAAACTCAGGTGA (sugars k3 d4 k3 e1 d5, PS)					59%	
TTGTAAGTGCAACCAA (sugars kkddddekekeddddd, PS)					87%	
